In patent publication US20080090805A1, “CB-1 MODULATING COMPOUNDS AND THEIR USE” (ACADIA PHARMACEUTICALS INC., priority 2005, published 2008):

Columns and labels:
[1] = Clearance study, liver microsomes (human); conditions: pH 7.4
[2] = Clearance study, liver microsomes (rats); conditions: rat, pH 7.4

Row | SMILES | microsomal CLint at 1 μM [1] [µL/min/mg] | microsomal CLint at 1 μM [2] [µL/min/mg]
1 | Cc1ccc(CNC(=O)c2ccc3c(c2)N=C(c2cccc(Cl)c2)c2ccccc2S3)o1 [drawing 1705] | 37 | 147
2 | O=C(NCc1cccc(Cl)c1)c1ccc2c(c1)N=C(N1CCC(F)CC1)c1ccccc1S2 [drawing 1714] | 96 | 477
3 | CC(CNC(=O)c1ccc2c(c1)N=C(c1ccc(Cl)cc1)c1cc(F)ccc1S2)c1ccccc1 (centres unmarked) [drawing 1716] | 39 | 165
4 | CCOC(=O)N1CCC(NC(=O)c2ccc3c(c2)N=C(c2ccc(Cl)cc2)c2ccccc2S3)CC1 [drawing 1726] | 88 | 89
5 | Cc1csc(CNC(=O)c2ccc3c(c2)N=C(c2cccc(C)n2)c2ccccc2S3)c1 [drawing 1727] | 113 | 725
6 | O=C(NCc1cccc(Cl)c1)c1ccc2c(c1)N=C(c1cccc(Cl)c1)c1ccccc1S2 [drawing 1729] | 36 | 74
7 | O=C(NCCc1ccc(Cl)cc1)c1ccc2c(c1)N=C(C1CCCCC1)c1ccccc1S2 [drawing 1737] | 138 | 230
8 | CC(CNC(=O)c1ccc2c(c1)N=C(c1ccc(Cl)cc1)c1ccccc1S2)c1ccccc1 (centres unmarked) [drawing 1743] | 62 | 179
9 | CC(C)CNC(=O)c1ccc2c(c1)N=C(c1ccc(Cl)cn1)c1ccc(F)cc1S2 [drawing 1746] | 25 | 175
10 | CCCCNC(=O)c1ccc2c(c1)N=C(c1ccc(Cl)cn1)c1cc(F)ccc1S2 [drawing 1748] | 57 | 131
11 | CCCCNC(=O)c1ccc2c(c1)N=C(c1cccc(Cl)c1)c1cc(Cl)ccc1S2 [drawing 1750] | 13 | 52
12 | CC(C)CNC(=O)c1ccc2c(c1)N=C(c1ccsc1)c1ccccc1S2 [drawing 1753] | 546 | 427
13 | CC(CNC(=O)c1ccc2c(c1)N=C(c1cccc(Cl)c1)c1ccccc1S2)c1ccccc1 (centres unmarked) [drawing 1755] | 56 | 174
14 | O=C(NCCCc1ccccc1)c1ccc2c(c1)N=C(c1cccc(Cl)c1)c1ccccc1S2 [drawing 1765] | 72 | 163
15 | O=C(NCCc1cccc(Cl)c1)c1ccc2c(c1)N=C(c1ccc(Cl)cc1)c1ccccc1S2 [drawing 1766] | 56 | 116
16 | O=C(NCCc1cccc(Cl)c1)c1ccc2c(c1)N=C(c1ccc(F)cc1)c1ccccc1S2 [drawing 1768] | 37 | 126
17 | O=C(NCc1cccc(Cl)c1)c1ccc2c(c1)N=C(N1CCCCC1)c1ccccc1[S+]2[O-] (centres unmarked) [drawing 1774] | 90 | 416
18 | O=C(NCc1ccc(F)cc1)c1ccc2c(c1)N=C(c1ccc(Cl)cc1)c1ccccc1S2(=O)=O [drawing 1776] | 13 | 17
19 | CCCCNC(=O)c1ccc2c(c1)N=C(c1ccc(Cl)cn1)c1ccc(F)cc1S2 [drawing 1778] | 29 | 227
20 | O=C(NCc1ccccc1)c1ccc2c(c1)N=C(C1CCCCC1)c1ccccc1S2 [drawing 1779] | 81 | 351
21 | O=C(NCCc1ccc(Cl)cc1)c1ccc2c(c1)N=C(N1CCCCC1)c1ccccc1S2 [drawing 1783] | 434 | 506

Second part, the molecule after the results:

Row | microsomal CLint at 1 μM [1] [µL/min/mg] | microsomal CLint at 1 μM [2] [µL/min/mg] | SMILES
22 | 27 | 90 | Cc1csc(CNC(=O)c2ccc3c(c2)N=C(c2ccc(Cl)s2)c2ccccc2S3)c1 [drawing 1707]
23 | 42 | 160 | Cc1csc(CNC(=O)c2ccc3c(c2)N=C(c2cccc(F)c2)c2ccccc2S3)c1 [drawing 1709]
24 | 41 | 111 | CCCCNC(=O)c1ccc2c(c1)N=C(c1ccc(Cl)s1)c1cc(F)ccc1S2 [drawing 1710]
25 | 39 | 258 | Cc1ccc(CNC(=O)c2ccc3c(c2)N=C(c2ccc(F)cc2)c2ccccc2S3)o1 [drawing 1711]
26 | 4 | 37 | CC(C)CNC(=O)c1ccc2c(c1)N=C(c1ccc(Cl)cc1)c1ccc(Cl)cc1S2 [drawing 1718]
27 | 24 | 182 | O=C(NCCCC(F)(F)F)c1ccc2c(c1)N=C(c1cccc(F)c1)c1ccccc1S2 [drawing 1719]
28 | 18 | 40 | O=C(NCCC(F)(F)F)c1ccc2c(c1)N=C(c1cccc(Cl)c1)c1ccccc1S2 [drawing 1721]
29 | 38 | 44 | CCCCNC(=O)c1cnc2c(n1)N=C(c1ccccc1)c1ccccc1S2 [drawing 1722]
30 | 476 | 670 | O=C(NCCc1ccc(Cl)cc1)c1ccc2c(c1)N=C(N1CCC(F)CC1)c1ccccc1S2 [drawing 1734]
31 | 255 | 735 | O=C(NCc1ccc(F)cc1)c1ccc2c(c1)N=C(N1CCCCC1)c1ccccc1S2 [drawing 1738]
32 | 62 | 83 | O=C(NCCc1ccc(Cl)cc1)c1ccc2c(c1)N=C(c1cccc(Cl)c1)c1ccccc1S2 [drawing 1739]
33 | 62 | 144 | O=C(NCCc1ccccc1)c1ccc2c(c1)N=C(c1ccc(Cl)cc1)c1ccccc1S2 [drawing 1745]
34 | 249 | 379 | CCN(CCNC(=O)c1ccc2c(c1)N=C(C1CCCCC1)c1ccccc1S2)c1ccccc1 [drawing 1747]
35 | 278 | 484 | CCN(CCNC(=O)c1ccc2c(c1)N=C(c1ccc(F)cc1)c1ccccc1S2)c1ccccc1 [drawing 1749]
36 | 125 | 267 | CC(CNC(=O)c1ccc2c(c1)N=C(C1CCCCC1)c1ccccc1S2)c1ccccc1 (centres unmarked) [drawing 1769]
37 | 109 | 274 | O=C(NCCc1ccccc1)c1ccc2c(c1)N=C(c1ccc(F)cc1)c1ccccc1S2 [drawing 1773]
38 | 70 | 458 | O=C(NCc1cccc(Cl)c1)c1ccc2c(c1)N=C(C1CCCCC1)c1ccccc1S2 [drawing 1777]
39 | 57 | 178 | O=C(NCc1ccccc1Cl)c1ccc2c(c1)N=C(c1ccccc1)c1ccccc1S2 [drawing 1780]
40 | 123 | 177 | COc1ccc(C2=Nc3cc(C(=O)NCCC(C)C)ccc3Sc3ccccc32)cc1 [drawing 1785]
41 | 73 | 242 | O=C(NCc1ccc(F)cc1)c1ccc2c(c1)N=C(c1ccccc1)c1ccccc1S2 [drawing 1787]
42 | 10 | 36 | O=C(NCc1ccccc1Br)c1ccc2c(c1)N=C(c1ccc(Cl)cc1)c1ccccc1S2 [drawing 1788]
43 | 114 | 632 | Cc1cccc(C2=Nc3cc(C(=O)NCc4ccc(C)o4)ccc3Sc3ccccc32)n1 [drawing 1789]
